This note sets out measurements from ChEMBL document CHEMBL3044958, “Synthesis, evaluation of 6,8-dibromo-2-aryl-2,3-dihydroquinolin-4(1H)-ones in MCF-7 (breast cancer) cell lines and their docking studies” (2012).

Where only a bound is given, the exact number is not on record here.

Assay type in all cases: functional
Test [1] relates to MCF7. In words: Growth inhibition of Homo sapiens (human) MCF-7 cells assessed as cell growth at 10 '-7 M after 48 hr by SRB assay. The following applies: MCF7, 48 h, read-out: Activity.
In test [2] the test system is MCF7. As to the kind of experiment: Growth inhibition of Homo sapiens (human) MCF-7 cells assessed as cell growth at 10 '-6 M after 48 hr by SRB assay. The following applies: MCF7, 48 h, read-out: Activity. For orientation: The SRB assay estimates cell density from bound dye.
Test [3] has as its system MCF7. As to the kind of experiment: Growth inhibition of Homo sapiens (human) MCF-7 cells assessed as cell growth at 10 '-5 M after 48 hr by SRB assay. The following applies: MCF7, 48 h, read-out: Activity.
In test [4] the test system is MCF7. In words: Cytotoxicity against Homo sapiens (human) MCF-7 cells after 48 hr by SRB assay. The following applies: MCF7, 48 h.
For test [5], the system named is MCF7. In words: Growth inhibition of Homo sapiens (human) MCF-7 cells assessed as cell growth at 10 '-4 M after 48 hr by SRB assay. The following applies: MCF7, 48 h, read-out: Activity.
Test [6] has as its system MCF7. In words: Growth inhibition of Homo sapiens (human) MCF-7 cells after 48 hr by SRB assay. The following applies: MCF7, 48 h.
Test [7] relates to MCF7. In words: Growth inhibition of Homo sapiens (human) MCF-7 cells assessed as total cell growth after 48 hr by SRB assay.

For orientation: GI50 means the concentration at which growth is held to half of that of the control. Low readings indicate greater sensitivity of the cells, high ones lower sensitivity of the cells. Broadly, the TGI is the concentration giving total growth inhibition.

With `O=C1CC(c2ccc(Br)cc2)Nc2c(Br)cc(Br)cc21` (stereo unspecified), in test [1], the growth at 0.1 µM came to 69.7%. The growth at 1 µM in test [2] was determined as 69.7%. Moreover, the growth at 10 µM in test [3] came out at 12.5%. Moreover, the LC50 (concentration killing 50% of cells) in test [4] was > 100000 nM. Moreover, the growth at 100 µM in test [5] is -43%. Also, growth in test [6] was halved (GI50) at 151 nM. The concentration for total growth inhibition (TGI) in test [7] was 2600 nM.

Turning to `O=C1CC(c2ccc(O)cc2)Nc2c(Br)cc(Br)cc21` (stereo unspecified), the growth at 0.1 µM in test [1] turned out to be 3.7%. In test [2], the growth at 1 µM came out at 9.6%. Further, in test [3], the growth at 10 µM was -2%. The LC50 (concentration killing 50% of cells) in test [4] was > 100000 nM. Also, the growth at 100 µM in test [5] was -45.3%. The GI50 in test [6] is < 100 nM. Also, in test [7], the TGI was determined as 151 nM.

Take `O=C1CC(c2ccc(Cl)cc2)Nc2c(Br)cc(Br)cc21` (stereo unspecified): in test [1], the growth at 0.1 µM amounted to 60.2%. In addition, the growth at 1 µM in test [2] was 61.7%. In addition, in test [3], the growth at 10 µM came out at 34.5%. The LC50 (concentration killing 50% of cells) in test [4] was > 100000 nM. Also, the growth at 100 µM in test [5] was -40%. Moreover, in test [6], the GI50 was 146 nM. The TGI in test [7] was 2870 nM.

As for `COc1cccc2c1C(=O)c1c(O)c3c(c(O)c1C2=O)C[C@@](O)(C(=O)CO)C[C@@H]3O[C@H]1C[C@H](N)[C@H](O)[C@H](C)O1.Cl` [DOXORUBICIN HYDROCHLORIDE], in test [1], the growth at 0.1 µM was 53.5%. The growth at 1 µM in test [2] was -13.9%. The growth at 10 µM in test [3] is -23.7%. In test [5], the growth at 100 µM was -33.5%. Moreover, the concentration for 50% growth inhibition (GI50) in test [6] was < 100 nM. The total growth inhibition concentration (TGI) in test [7] is 183 nM.

For the molecule `COc1ccc(C2CC(=O)c3cc(Br)cc(Br)c3N2)cc1` (stereo unspecified), the growth at 0.1 µM in test [1] amounted to 168%. Moreover, the growth at 1 µM in test [2] came out at 140%. For the same molecule, in test [3], the growth at 10 µM is 87.8%. In test [4], the LC50 (concentration killing 50% of cells) was > 100000 nM. The growth at 100 µM in test [5] is 7.1%. Further, in test [6], the concentration for 50% growth inhibition (GI50) is > 100000 nM. The total growth inhibition concentration (TGI) in test [7] was > 100000 nM.

`O=C1CC(c2cccc(O)c2)Nc2c(Br)cc(Br)cc21` (stereo unspecified): the growth at 0.1 µM in test [1] amounted to 118%. Moreover, in test [2], the growth at 1 µM came out at 108%. The growth at 10 µM in test [3] was 25.6%. In addition, in test [4], the LC50 (concentration killing 50% of cells) was > 100000 nM. Besides, in test [5], the growth at 100 µM worked out at 14.7%. Further, the 50% growth inhibitory concentration (GI50) in test [6] is > 100000 nM. Besides, the total growth inhibition concentration (TGI) in test [7] was > 100000 nM.

Consider `O=C1CC(c2ccc([N+](=O)[O-])cc2)Nc2c(Br)cc(Br)cc21` (stereo unspecified), for which the growth at 0.1 µM in test [1] is 50.5%. Besides, the growth at 1 µM in test [2] was determined as 8.6%. Also, the growth at 10 µM in test [3] is -4.4%. Besides, the LC50 (concentration killing 50% of cells) in test [4] is > 100000 nM. Besides, in test [5], the growth at 100 µM is -52.3%. Moreover, in test [6], the GI50 was < 100 nM. Besides, in test [7], the TGI was 132 nM.

With `N#Cc1ccc(C2CC(=O)c3cc(Br)cc(Br)c3N2)cc1` (stereo unspecified), the growth at 0.1 µM in test [1] is 43.1%. For the same molecule, the growth at 1 µM in test [2] worked out at 8.2%. Further, the growth at 10 µM in test [3] is -5.1%. For the same molecule, the LC50 (concentration killing 50% of cells) in test [4] was > 100000 nM. Besides, the growth at 100 µM in test [5] is -58.5%. Further, the GI50 in test [6] was < 100 nM. In addition, the TGI in test [7] is 126 nM.

On to `CN(C)c1ccc(C2CC(=O)c3cc(Br)cc(Br)c3N2)cc1` (stereo unspecified), for which, in test [1], the growth at 0.1 µM is 164%. The growth at 1 µM in test [2] worked out at 144%. In addition, the growth at 10 µM in test [3] turned out to be 130%. Further, in test [4], the LC50 (concentration killing 50% of cells) is > 100000 nM. In addition, the growth at 100 µM in test [5] amounted to 43%. In addition, in test [6], the concentration for 50% growth inhibition (GI50) was > 100000 nM. The total growth inhibition concentration (TGI) in test [7] is > 100000 nM.

Consider `COc1cc(C2CC(=O)c3cc(Br)cc(Br)c3N2)cc(OC)c1OC` (stereo unspecified), for which the growth at 0.1 µM in test [1] was found to be 130%. Further, the growth at 1 µM in test [2] worked out at 110%. Further, the growth at 10 µM in test [3] came out at 99.6%. Moreover, in test [4], the LC50 (concentration killing 50% of cells) was > 100000 nM. Moreover, the growth at 100 µM in test [5] came out at 34.3%. In addition, in test [6], the GI50 is > 100000 nM. Also, the concentration for total growth inhibition (TGI) in test [7] is > 100000 nM.

Take `O=C1CC(c2ccc(F)cc2)Nc2c(Br)cc(Br)cc21` (stereo unspecified): the growth at 0.1 µM in test [1] was 30.1%. The growth at 1 µM in test [2] came out at 9.2%. The growth at 10 µM in test [3] was -3.6%. Moreover, in test [4], the LC50 (concentration killing 50% of cells) is > 100000 nM. Besides, the growth at 100 µM in test [5] is -48.1%. Also, the GI50 in test [6] is < 100 nM. In test [7], the TGI came to 145 nM.
